In patent US20200352918A1, “COMPOUNDS AND METHODS FOR TREATING OR PREVENTING FIBROSIS” (priority 2019, published 2020):

Tested on: iFA model
Test: Fibrotic marker, cytokine and repair modulator expression in the iFA model (qPCR, immunoblotting, luminex, immunofluorescence)
Format: cell-based, human
Protocol: The Milliplex human cytokine/chemokine Panel IV, human TIMP Panel 2, and human TGFβ 1,2,3 magnetic bead kits (EMD Millipore) were used per manufacturer's instructions. Prior to plating, all samples tested for human TGFβ only were activated and neutralized with 1.0 N HCl and 1.0 N NaOH, respectively. Briefly, 25 μl of undiluted or treated cell culture supernatant samples were mixed with 25 μl of magnetic beads and allowed to incubate overnight at 4° C. while shaking. After washing the plates with wash buffer in a Biotek ELx405 washer, 25 μl of biotinylated detection antibody was added and incubated for 1 hour at room temperature while shaking. 25 μl of streptavidin-phycoerythrin conjugate was then added to the reaction mixture and incubated for another 30 minutes at room temperature while shaking. Following additional washes, beads were resuspended in sheath fluid, and fluorescence was quantified using a Luminex 200 instrument. Similarly, a custom magnetic Luminex assay kit of select analytes (R&D Systems) was used per manufacturer's instructions. Cell culture supernatants were prepared with a 2-fold dilution. 50 μl of diluted sample were added to 50 μl of provided micro-particle cocktail and incubated for 2 hours at room temperature while shaking. After washing with wash buffer, 50 μl of biotin antibody cocktail was added and incubated for 1 hour at room temperature while shaking. Following additional washes, 50 μl of diluted Streptavidin-PE was then added for incubation for 30 minutes at room temperature while shaking. The plate was then washed again and the micro-particles resuspended in 100 μl wash buffer. After an additional 2-minute incubation while shaking, the data was acquired using a Luminex 200 instrument.
In-vitro cultures of PF and cells in the iFA model were washed once with PBS and total RNA from the samples were extracted using the RNeasy Mini Kit (Qiagen) according to the manufacturer's instructions. For the lung slice cultures (LSC), tissues were snap-frozen after treatment and stored at −80° C. until RNA isolation. Lung slices were homogenized using a handheld homogenizer and passing the homogenate through a Qiashredder (Qiagen). Total RNA from the LSC and cells from the disease model were extracted using the RNeasy Mini Kit (Qiagen) according to the manufacturer's instructions. The RNA concentrations were measured on a NanoDrop ND-1000 spectrophotometer. Single-stranded cDNA was synthesized from 200 ng of total RNA using Superscript IV and random hexamer primers (Invitrogen) in a volume of 20 μl. cDNA was then used for qRT-PCR analysis. PCR reactions were performed using Taqman Gene Expression Assay mix (Applied Biosystems) according to the manufacturer's instructions.
qRT-PCR reactions were performed using the StepOnePlus (Applied Biosystems). Relative gene expression was calculated using the 2^−ΔΔCt method, with 18S Cat. #4331182 (Invitrogen) as housekeeping gene. For the RT^2qPCR arrays, cDNA from DMSO and AA5 treated iFA and was added to the RT^2 qPCR iTaq Universal SYBR green Master Mix (Biorad). 20 μl of the experimental cocktail was added to each well of the Fibrosis PCR (Qiagen). Real-Time PCR was performed on the StepOnePlus qPCR system (Applied Biosystems) using SYBR green detection according to the manufacturer's recommendations. All data from the PCR was collected and analyzed by SA Bioscience's PCR Array Data Analysis Web Portal.
Cells grown on coverslips were fixed in 4% paraformaldehyde (PFA) for 10 min at room temperature and washed three times with TBS buffer supplemented with 0.1% Tween 20 (TBST). Lung samples were fixed overnight in 4% PFA at room temperature, washed 3 times in PBS, dehydrated and then infiltrated and embedded with wax. Five-micron sections were collected on glass slides, deparaffinized and rehydrated. Heat-induced epitope retrieval was performed using 1 mM EDTA in a microwave. […]

Cc1c(C(=O)Nc2nc3ccccc3s2)sc2nc3cc4c(cc3cc12)OCO4 [AA5]
Secreted levels of acute-phase response cytokines IL-6, IL-8 and IFNα (AA5-prevention and AA5-resolution, luminex): increase
PTX3 protein (AA5-prevention and AA5-resolution, over time): progressively increasing amounts
Acute-phase signaling secondary cytokines MCP-3, VEGF, CSF3 and GRO (AA5 treated iFA model): increase
Gene expression of fibrotic markers α-SMA, Collagen I, TIMP-3 and POSTN (AA5 treatment, confirmed by immunoblotting, luminex, immunofluorescence): down-regulation
Modulators of tissue repair PTX3 and CD163L1 (within 24 hours of AA5-resolution treatment): upregulation
